Tested on: acute experimental autoimmune encephalomyelitis (aEAE)
Experiment: Acute experimental autoimmune encephalomyelitis (aEAE) inhibition in mice
Type: in vivo
Details: for activity in the aEAE model (in words): mice, no dose stated; for aEAE inhibition (%): percent inhibition of clinical scores vs saline controls
[1] = SJL/N female mice, dose 0.2 mg/kg po daily at days 3 to 7 and 10 to 12
[2] = SJL/N female mice, dose 1.0 mg/kg po daily at days 3 to 7 and 10 to 12
[3] = SJL/N female mice, dose 5.0 mg/kg po daily at days 3 to 7 and 10 to 12

Q: How did the “activity in the aEAE model (in words)” value turn out when `O=C(Nc1cccnc1)c1c(O)c2ccsc2[nH]c1=O` [6,7-dihydro-4-hydroxy-N-(3-pyridyl)-6-oxo-thieno[2,3-b]pyridine-5-carboxamide, reference compound] was run?
A: inactive

Q: Which results are given for `Cc1csc2c1c(O)c(C(=O)N(C)c1ccccc1)c(=O)n2C` [Compound #1, 6,7-dihydro-4-hydroxy-N-phenyl-N,3,7-trimethyl-6-oxo-thieno[2,3-b]pyridine-5-carboxamide]?
A: aEAE inhibition (%) [1]: 85%; aEAE inhibition (%) [2]: 99%

Q: What does the source list for `CCN(C(=O)c1c(O)c2c(C)csc2n(C)c1=O)c1ccccc1` [compound 2, 6,7-dihydro-3,7-dimethyl-N-ethyl-4-hydroxy-N-phenyl-6-oxo-thieno[2,3-b]pyridine-5-carboxamide]?
A: aEAE inhibition (%) [1]: 66%; aEAE inhibition (%) [2]: 84%

Q: With `CCc1csc2c1c(O)c(C(=O)N(C)c1ccccc1)c(=O)n2C` [compound 3, 6,7-dihydro-N,7-dimethyl-3-ethyl-4-hydroxy-N-phenyl-6-oxo-thieno[2,3-b]pyridine-5-carboxamide] as the compound, how does the “aEAE inhibition (%)” value [1] read?
A: 84%

Q: What about the “aEAE inhibition (%)” value [2] of the same compound?
A: 100%

Q: How did the “aEAE inhibition (%)” value [1] turn out when `COc1ccc(N(C)C(=O)c2c(O)c3c(C)csc3n(C)c2=O)cc1` [compound 6, 6,7-dihydro-4-hydroxy-N-(4-methoxyphenyl)-N,3,7-trimethyl-6-oxo-thieno[2,3-b]pyridine-5-carboxamide] was run?
A: 92%

Q: Which “aEAE inhibition (%)” value [2] does the source give for `Cc1scc2c1c(O)c(C(=O)N(C)c1ccccc1)c(=O)n2C` [compound 10, 4,5-dihydro-7-hydroxy-N-phenyl-N,1,4-trimethyl-5-oxo-2-thia-4-aza-indene-6-carboxamide] here?
A: 78%

Q: And the “aEAE inhibition (%)” value [3]?
A: 95%

Q: `CN(C(=O)c1c(O)c2ccsc2n(C)c1=O)c1ccccc1` [compound 11, 6,7-dihydro-N,7-dimethyl-4-hydroxy-N-phenyl-6-oxo-thieno[2,3-b]pyridine-5-carboxamide] was tested. Which “aEAE inhibition (%)” value [2] did it give?
A: 53%

Q: What does the source list for `CN(C(=O)c1c(O)c2sccc2n(C)c1=O)c1ccccc1` [compound 12, 4,5-dihydro-N,4-dimethyl-7-hydroxy-N-phenyl-5-oxo-thieno[3,2-b]pyridine-6-carboxamide, reference compound]?
A: aEAE inhibition (%), result in words (SJL/N female mice, dose 5.0 mg/kg po, class word defined in footnote): inactive*; activity in the aEAE model (in words): inactive

Q: `Cc1csc2c1c(O)c(C(=O)N(C)c1cccnc1)c(=O)n2C` [compound 13, 6,7-dihydro-4-hydroxy-N-(3-pyridyl)-N,3,7-trimethyl-6-oxo-thieno[2,3-b]pyridine-5-carboxamide, reference compound] was tested. Which “aEAE inhibition (%)” value [3] did it give?
A: 46%

Q: What about the “activity in the aEAE model (in words)” value of the same compound?
A: poorly active

Reference: patent publication US7553849B2, “Compounds” (Active Biotech AB, priority 2004, dated 2009)
